How the values were obtained:
CYP2C9 = molecular target: T1, CYP2C9 (Homo sapiens, UniProt P11712); assay: CYP inhibitory test using human liver microsome; format: in vitro ADME; details: model substrate diclofenac, 37° C., 10 min, read-out: CYP2C9 inhibition, IC50
T1 construct: Human liver microsome (20 mg protein/mL, 5 μL, Xenotech LLC, purchased from Lenexa Kans.); tissue Xenotech LLC; host or cells: human liver microsomes
Experimental: Experimental Example 2 CYP Inhibitory Test Using Human Liver Microsome
Human liver microsome (20 mg protein/mL, 5 μL, Xenotech LLC, purchased from Lenexa Kans.) was suspended in 100 mM potassium phosphate buffer (70 μL, pH 7.4), mixed with a solution (0.5 μL) of the Example compound dissolved in DMSO and preincubated at 37° C. for 5 min. NADPH producing system coenzyme solution (β-nicotinamide adenine dinucleotide phosphate: 5.2 mM, D-glucose-6-phosphate: 13.2 mM, magnesium chloride: 13.2 mM, glucose-6-phosphate dehydrogenase: 1.8 U/mL) 25 μL, and a model substrate (CYP3A4: midazolam 1 mM, CYP2D6: bufuralol 1 mM, CYP2C9: diclofenac 2 mM) 0.5 μL dissolved in DMSO were added to start the reaction. After incubation at 37° C. for 10 min., acetonitrile (200 μL) containing an internal standard substance (propranolol 1 μM) was added and the mixture was centrifuged (room temperature, 3000 rpm, 20 min). The amount of the metabolite produced from each model substrate in the supernatant was measured by high performance liquid chromatography/mass spectrometry (LC/MS/MS) and each CYP enzyme activity was determined. The concentration showing 50% inhibition (IC50) was calculated relative to the enzyme activity without addition of Example compound (DMSO 0.5 μL added) as 100%.
As a comparative example, the CYP enzyme activity of the compound described in JP-A-3-135917 was examined by determining the IC50 value in the same manner as above.

human URAT1 = molecular target: T2, human URAT1 (Homo sapiens, UniProt Q96S37); assay: Uric acid transport inhibitory test using human URAT1-expressing cells; format: cell-based; details: human URAT1-expressing HEK293 cells, 14C-uric acid 50 μM, uptake 5 min, room temperature; read-out: hURAT1 IC50
T2 construct: Human URAT1 full length cDNA was subcloned to expression vector pcDNA3.1; expressed in transfected cells; host or cells: HEK293 cells (pcDNA3.1, geneticin-selected)
T2 sequence (Q96S37 1-553): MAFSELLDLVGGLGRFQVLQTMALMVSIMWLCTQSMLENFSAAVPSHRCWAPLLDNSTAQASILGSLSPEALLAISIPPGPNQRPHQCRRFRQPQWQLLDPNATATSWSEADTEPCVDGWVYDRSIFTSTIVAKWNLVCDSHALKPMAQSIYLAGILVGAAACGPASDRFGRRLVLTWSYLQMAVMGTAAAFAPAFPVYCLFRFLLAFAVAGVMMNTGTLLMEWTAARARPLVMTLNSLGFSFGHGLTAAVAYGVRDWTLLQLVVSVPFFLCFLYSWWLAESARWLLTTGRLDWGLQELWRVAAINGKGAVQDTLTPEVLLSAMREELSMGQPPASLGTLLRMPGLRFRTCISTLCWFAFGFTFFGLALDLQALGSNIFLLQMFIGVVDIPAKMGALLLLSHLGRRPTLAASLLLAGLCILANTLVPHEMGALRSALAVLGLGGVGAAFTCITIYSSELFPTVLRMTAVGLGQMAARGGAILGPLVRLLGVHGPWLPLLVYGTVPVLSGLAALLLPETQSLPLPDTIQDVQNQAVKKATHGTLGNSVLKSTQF
Procedure, shortened: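 HEK293 cells stably transfected with full-length human URAT1; mock-transfected HEK293 served as background. Uptake of 14C-uric acid (50 μM final) over 5 min at room temperature in Na-gluconate-substituted HBSS with compound, read by scintillation. IC50 derived from URAT1-specific transport (URAT1 minus mock, DMSO = 100%).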

T1 sequence (P11712 whole entry): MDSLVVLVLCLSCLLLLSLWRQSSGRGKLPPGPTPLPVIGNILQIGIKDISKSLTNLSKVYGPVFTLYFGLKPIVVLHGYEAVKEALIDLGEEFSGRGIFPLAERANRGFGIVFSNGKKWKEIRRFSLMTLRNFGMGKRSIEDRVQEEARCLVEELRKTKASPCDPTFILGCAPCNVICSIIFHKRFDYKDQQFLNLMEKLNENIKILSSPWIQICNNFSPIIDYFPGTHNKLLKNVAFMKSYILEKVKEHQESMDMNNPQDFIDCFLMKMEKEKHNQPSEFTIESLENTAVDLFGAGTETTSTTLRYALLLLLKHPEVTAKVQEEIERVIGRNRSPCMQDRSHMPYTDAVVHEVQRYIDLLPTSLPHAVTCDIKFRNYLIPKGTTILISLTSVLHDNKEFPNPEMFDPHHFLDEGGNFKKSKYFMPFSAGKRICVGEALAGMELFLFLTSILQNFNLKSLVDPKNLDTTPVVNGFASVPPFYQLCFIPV

SMILES | IC50 (CYP2C9) | IC50 (human URAT1)
Cc1cccc2c1OC(c1ccccc1)CN2C(=O)/C=C/C(=O)O (centres unmarked) [Example 55, (E)-4-(8-methyl-2-phenyl-2,3-dihydrobenzo[1,4]oxazin-4-yl)-4-oxo-2-butenoic acid] | > 50 µM | ≥ 3000 nM
Cc1cc(C)c2c(c1)N(CCC(=O)O)C(=O)[C@@H](CC(C)C)O2 [Example 91, 3-((R)-2-isobutyl-6,8-dimethyl-3-oxo-2,3-dihydrobenzo[1,4]oxazin-4-yl)propionic acid] | > 50 µM | < 300 nM
Cc1cccc2c1OC(C(C)C)CN2C(=O)/C=C/C(=O)O (centres unmarked) [Example 54, (E)-4-(2-isopropyl-8-methyl-2,3-dihydrobenzo[1,4]oxazin-4-yl)-4-oxo-2-butenoic acid] | > 50 µM | ≥ 3000 nM
Cc1cc(C)c2c(c1)N(CCC(=O)O)C(=O)[C@H](C(C)C)O2 [Example 73, 3-((S)-2-isopropyl-6,8-dimethyl-3-oxo-2,3-dihydrobenzo[1,4]oxazin-4-yl)propionic acid] | > 50 µM | < 300 nM
Cc1cc(Cl)cc2c1OC(C(C)C)CN2C(=O)/C=C/C(=O)O (centres unmarked) [Example 83, (E)-4-(6-chloro-2-isopropyl-8-methyl-2,3-dihydrobenzo[1,4]oxazin-4-yl)-4-oxo-2-butenoic acid] | > 50 µM | 300 to 3000 nM
CCc1cc(C)c2c(c1)N(CCC(=O)O)C(=O)C(C(C)C)O2 (centres unmarked) [Example 101, 3-(6-ethyl-2-isopropyl-8-methyl-3-oxo-2,3-dihydrobenzo[1,4]oxazin-4-yl)propionic acid] | > 50 µM | < 300 nM
CC(C)c1cccc2c1OC(C(C)C)C(=S)N2CCC(=O)O (centres unmarked) [Example 16, 3-(2,8-diisopropyl-3-thioxo-2,3-dihydrobenzo[1,4]oxazin-4-yl)propionic acid] | > 50 µM | 300 to 3000 nM
CC(C)c1cccc2c1OC(C(C)C)CN2C(=O)/C=C\C(=O)O (centres unmarked) [Example 37, (Z)-4-(2,8-diisopropyl-2,3-dihydrobenzo[1,4]oxazin-4-yl)-4-oxo-2-butenoic acid] | > 50 µM | 300 to 3000 nM
CC(C)C1CN(C(=O)/C=C/C(=O)O)c2cc(Cl)ccc2O1 (centres unmarked) [Example 69, (E)-4-(6-chloro-2-isopropyl-2,3-dihydrobenzo[1,4]oxazin-4-yl)-4-oxo-2-butenoic acid] | > 50 µM | ≥ 3000 nM
CC(C)c1cccc2c1OC(C(C)C)C(=O)N2CCC(=O)O (centres unmarked) [Example 14, 3-(2,8-diisopropyl-3-oxo-2,3-dihydrobenzo[1,4]oxazin-4-yl)propionic acid] | > 50 µM | 300 to 3000 nM
Cc1ccc2c(c1)OC(C(C)C)CN2C(=O)/C=C/C(=O)O (centres unmarked) [Example 56, (E)-4-(2-isopropyl-7-methyl-2,3-dihydrobenzo[1,4]oxazin-4-yl)-4-oxo-2-butenoic acid] | > 50 µM | ≥ 3000 nM

Results, then the compound that gave them:

IC50 (CYP2C9) | IC50 (human URAT1) | SMILES
> 50 µM | < 300 nM | Cc1cc(Cl)cc2c1O[C@H](C(C)C)C(=O)N2CCC(=O)O [Example 107, 3-((R)-6-chloro-2-isopropyl-8-methyl-3-oxo-2,3-dihydrobenzo[1,4]oxazin-4-yl)propionic acid]
> 50 µM | < 300 nM | CC(C)[C@H]1Oc2c(Cl)cc(Cl)cc2N(CCC(=O)O)C1=O [Example 108, 3-((R)-6,8-dichloro-2-isopropyl-3-oxo-2,3-dihydrobenzo[1,4]oxazin-4-yl)propionic acid]
> 50 µM | 300 to 3000 nM | Cc1cc(Cl)c2c(c1)N(CCC(=O)O)C(=O)[C@H](C(C)C)O2 [Example 109, 3-((S)-8-chloro-2-isopropyl-6-methyl-3-oxo-2,3-dihydrobenzo[1,4]oxazin-4-yl)propionic acid]
> 50 µM | < 300 nM | CC[C@H](C)[C@H]1Oc2c(C)cc(C)cc2N(CCC(=O)O)C1=O [Example 105, 3-[(R)-2-((S)-sec-butyl)-6,8-dimethyl-3-oxo-2,3-dihydrobenzo[1,4]oxazin-4-yl]propionic acid]
> 50 µM | 300 to 3000 nM | Cc1cc(Cl)cc2c1O[C@@H](C(C)C)C(=O)N2CCC(=O)O [Example 110, 3-((S)-6-chloro-2-isopropyl-8-methyl-3-oxo-2,3-dihydrobenzo[1,4]oxazin-4-yl)propionic acid]

Reference: patent US20070197512A1, “Carboxylic Acid Compounds and Use Thereof” (Japan Tobacco Inc., priority 2006, published 2007)
